Drawing on PubChem BioAssay AID248 (DTP/NCI, 2004), this text covers T/C for 16 compounds.

Structures are written as SMILES. Values joined by “and” are separate entries in the source; they are usually repeats but may differ in a detail not shown here. Equal entries are not always repeated. Inconclusive results and toxic doses are left out.

The subject of this experiment is L1210 leukemia ip in BDF1 mice, survival T/C. Nature of the experiment: NCI In Vivo Anticancer Drug Screen. Data for tumor model L1210 Leukemia (intraperitoneal) in B6D2F1 (BDF1) mice. The following applies: endpoint: mean survival time, higher = longer survival. In outline:
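In this screen, tumor-bearing mice given compound are compared to those given vehicle, and their survival values are reported as a treated-to-control quotient.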

Where [1] appears, read: dose: 150.0 mg/kg/injection, schedule: Q01DX001 (ip), vehicle: carboxymethylcellulose (CMC).
Where [2] appears, read: dose: 100.0 mg/kg/injection, schedule: Q01DX001 (ip), vehicle: saline.
[3] abbreviates: dose: 200.0 mg/kg/injection, schedule: Q01DX001 (ip), vehicle: saline.
Where [4] appears, read: dose: 400.0 mg/kg/injection, schedule: Q01DX001 (ip), vehicle: saline.
Setting [5] is: dose: 100.0 mg/kg/injection, schedule: Q04DX002 (ip), vehicle: Klucel (hydroxypropylcellulose) (HPC).
The mark [6] stands for this setting: dose: 200.0 mg/kg/injection, schedule: Q04DX002 (ip), vehicle: Klucel (hydroxypropylcellulose) (HPC).
[7] abbreviates: dose: 100.0 mg/kg/injection, schedule: Q01DX009 (ip), vehicle: saline with Tween-80.
[8] abbreviates: dose: 200.0 mg/kg/injection, schedule: Q01DX009 (ip), vehicle: saline with Tween-80.

Take `O=NN(CCCl)C(=O)Nc1ccc(Br)cn1`: the T/C is, setting by setting: (dose: 3.0 mg/kg/injection, schedule: Q01DX009 (ip), vehicle: carboxymethylcellulose (CMC)) 97 % of control; (dose: 6.0 mg/kg/injection, schedule: Q01DX009 (ip), vehicle: carboxymethylcellulose (CMC)) 103 % of control; (dose: 10.0 mg/kg/injection, schedule: Q01DX009 (ip), vehicle: carboxymethylcellulose (CMC)) 186 % of control; (dose: 12.0 mg/kg/injection, schedule: Q01DX009 (ip), vehicle: carboxymethylcellulose (CMC)) 119 % of control; (dose: 15.0 mg/kg/injection, schedule: Q01DX009 (ip), vehicle: carboxymethylcellulose (CMC)) 154 % of control; (dose: 22.5 mg/kg/injection, schedule: Q01DX009 (ip), vehicle: carboxymethylcellulose (CMC)) 158 % of control. For the same compound, the T/C by setting is: (dose: 29.0 mg/kg/injection, schedule: Q01DX009 (ip), vehicle: carboxymethylcellulose (CMC)) 157 % of control; (dose: 66.0 mg/kg/injection, schedule: Q01DX001 (ip), vehicle: carboxymethylcellulose (CMC)) 151 % of control; (dose: 100.0 mg/kg/injection, schedule: Q01DX001 (ip), vehicle: carboxymethylcellulose (CMC)) 150 % of control and 173 % of control; under setting [1], 102 % of control and 109 % of control.
Regarding `O=C(N/N=C/c1ccccc1O)C(O)C(O)C(O)C(O)CO` (stereo unspecified), the T/C is 92 % of control (dose: 100.0 mg/kg/injection, schedule: Q04DX002 (ip), vehicle: saline with Tween-80); 106 % of control (dose: 200.0 mg/kg/injection, schedule: Q04DX002 (ip), vehicle: saline with Tween-80); 95 % of control (dose: 400.0 mg/kg/injection, schedule: Q04DX002 (ip), vehicle: saline with Tween-80).
In the case of `Cn1cc(C(=O)O)c(=O)c2ccc(/C=C/c3ccc([N+](=O)[O-])o3)nc21`, the T/C by setting is: under setting [2], 92 % of control; under setting [3], 101 % of control; under setting [4], 103 % of control.
Consider `COC(=O)C1C(O)C(C)C(O)C(C)C=C(C)C2=C3C(=C(C)C(=O)c4c(O)c(c(C)c(OC(C)=O)c43)NC(=O)C(C)=C/C=C\C(C)C(O)C(C)C1O)OCO2` (stereo unspecified), for which the T/C was 105 % of control (dose: 20.0 mg/kg/injection, schedule: Q01DX009 (ip), vehicle: saline); 100 % of control (dose: 40.0 mg/kg/injection, schedule: Q01DX009 (ip), vehicle: saline); 102 % of control (dose: 80.0 mg/kg/injection, schedule: Q01DX009 (ip), vehicle: saline); 96 % of control under setting [5]; 107 % of control (dose: 160.0 mg/kg/injection, schedule: Q01DX009 (ip), vehicle: saline); 90 % of control under setting [6].
Take `CSc1ccc(NC(N)=O)cc1`: the T/C under setting [5] is 103 % of control; the T/C under setting [6] is 120 % of control; the T/C (dose: 400.0 mg/kg/injection, schedule: Q04DX002 (ip), vehicle: Klucel (hydroxypropylcellulose) (HPC)) was 95 % of control.
On to `O=c1[nH]c2cc(Cl)ccc2c2c(Cl)cccc12`, for which the T/C is, setting by setting: (dose: 75.0 mg/kg/injection, schedule: Q01DX001 (ip), vehicle: carboxymethylcellulose (CMC)) 91 % of control; under setting [1], 91 % of control; (dose: 300.0 mg/kg/injection, schedule: Q01DX001 (ip), vehicle: carboxymethylcellulose (CMC)) 96 % of control.
Turning to `CCCc1c(OCC)c(OC)c2c3c(c(-c4c(C)cc5c(CCC)c(OCC)c(OC)c6c5c4OC6NNc4ccccc4)c(C)cc13)OC2NNc1ccccc1` (stereo unspecified), the T/C was 98 % of control (dose: 75.0 mg/kg/injection, schedule: Q01DX001 (ip), vehicle: Klucel (hydroxypropylcellulose) (HPC)); 93 % of control (dose: 150.0 mg/kg/injection, schedule: Q01DX001 (ip), vehicle: Klucel (hydroxypropylcellulose) (HPC)); 91 % of control (dose: 300.0 mg/kg/injection, schedule: Q01DX001 (ip), vehicle: Klucel (hydroxypropylcellulose) (HPC)); 87 % of control (dose: 300.0 mg/kg/injection, schedule: Q04DX003 (ip), vehicle: Klucel (hydroxypropylcellulose) (HPC)).
Consider `O=C(O)c1ccccc1C(=O)NC(Cc1cnc[nH]1)C(=O)O` (stereo unspecified), for which the T/C under setting [7] was 96 % of control; the T/C (dose: 100.0 mg/kg/injection, schedule: Q04DX003 (ip), vehicle: saline with Tween-80) is 102 % of control; the T/C under setting [8] was 100 % of control; the T/C (dose: 200.0 mg/kg/injection, schedule: Q04DX003 (ip), vehicle: saline with Tween-80) was 102 % of control; the T/C (dose: 400.0 mg/kg/injection, schedule: Q01DX009 (ip), vehicle: saline with Tween-80) is 94 % of control; the T/C (dose: 400.0 mg/kg/injection, schedule: Q04DX003 (ip), vehicle: saline with Tween-80) was 91 % of control.
Consider `C=CC1CN2CCC1CC2C(=O)c1ccnc2ccccc12` (stereo unspecified), for which the T/C by setting is: (dose: 50.0 mg/kg/injection, schedule: Q01DX001 (ip), vehicle: saline) 101 % of control; under setting [2], 104 % of control; under setting [3], 106 % of control; under setting [4], 98 % of control.
Take `CC(=O)[C@]1(O)Cc2c(O)c3c(c(O)c2[C@@H](OC2CC(N)C(O)C(C)O2)C1)C(=O)c1c(O)cccc1C3=O` (stereo partly specified): the T/C (dose: 0.05 mg/kg/injection, schedule: Q03DX003 (ip), vehicle: saline) is 109 % of control; the T/C (dose: 0.1 mg/kg/injection, schedule: Q03DX003 (ip), vehicle: saline) is 123 % of control; the T/C (dose: 0.2 mg/kg/injection, schedule: Q01DX001 (ip), vehicle: saline) was 122 % of control; the T/C (dose: 0.4 mg/kg/injection, schedule: Q01DX009 (ip), vehicle: saline) was 154 % of control; the T/C (dose: 0.4 mg/kg/injection, schedule: Q03DX003 (ip), vehicle: saline) is 157 % of control; the T/C (dose: 0.8 mg/kg/injection, schedule: Q01DX001 (ip), vehicle: saline) is 192 % of control. For the same compound, the T/C is 98 % of control (dose: 0.8 mg/kg/injection, schedule: Q01DX009 (ip), vehicle: saline); 159 % of control (dose: 0.8 mg/kg/injection, schedule: Q03DX003 (ip), vehicle: saline); 166 % of control (dose: 1.6 mg/kg/injection, schedule: Q01DX001 (ip), vehicle: saline).
For the compound `OC(c1ccccc1)C1C(c2ccccc2)N1C1CCCCC1` (stereo unspecified), the T/C by setting is: (dose: 25.0 mg/kg/injection, schedule: Q01DX009 (ip), vehicle: Klucel (hydroxypropylcellulose) (HPC)) 97 % of control; (dose: 50.0 mg/kg/injection, schedule: Q01DX009 (ip), vehicle: Klucel (hydroxypropylcellulose) (HPC)) 96 % of control; (dose: 100.0 mg/kg/injection, schedule: Q04DX003 (ip), vehicle: Klucel (hydroxypropylcellulose) (HPC)) 101 % of control; (dose: 200.0 mg/kg/injection, schedule: Q04DX003 (ip), vehicle: Klucel (hydroxypropylcellulose) (HPC)) 98 % of control.
Regarding `CCCSCC(C)C`, the T/C by setting is: under setting [7], 108 % of control; under setting [8], 98 % of control.
Turning to `Cc1cc(S(=O)(=O)Cl)c(Cl)cc1Cl`, the T/C was 96 % of control under setting [2], 103 % of control under setting [3] and 96 % of control under setting [4].
Regarding `N=C(N)CSSCC(=N)N`, the T/C runs as follows: (dose: 12.5 mg/kg/injection, schedule: Q04DX003 (ip), vehicle: carboxymethylcellulose (CMC)) 92 % of control; (dose: 25.0 mg/kg/injection, schedule: Q04DX003 (ip), vehicle: carboxymethylcellulose (CMC)) 98 % of control; (dose: 50.0 mg/kg/injection, schedule: Q04DX003 (ip), vehicle: carboxymethylcellulose (CMC)) 98 % of control.
On to `Cc1cc(C)c2ccc([S+](C)C)c-2c(C)c1`, for which the T/C by setting is: (dose: 5.0 mg/kg/injection, schedule: Q01DX001 (ip), vehicle: carboxymethylcellulose (CMC)) 105 % of control; (dose: 10.0 mg/kg/injection, schedule: Q01DX001 (ip), vehicle: carboxymethylcellulose (CMC)) 100 % of control; (dose: 20.0 mg/kg/injection, schedule: Q01DX001 (ip), vehicle: carboxymethylcellulose (CMC)) 105 % of control; (dose: 40.0 mg/kg/injection, schedule: Q01DX001 (ip), vehicle: carboxymethylcellulose (CMC)) 108 % of control; (dose: 80.0 mg/kg/injection, schedule: Q01DX001 (ip), vehicle: carboxymethylcellulose (CMC)) 97 % of control.
For `O=C(Cc1ccccc1)Nc1cccc2ccccc12`, the T/C runs as follows: (dose: 100.0 mg/kg/injection, schedule: Q01DX009 (ip), vehicle: Klucel (hydroxypropylcellulose) (HPC)) 101 % of control; (dose: 200.0 mg/kg/injection, schedule: Q01DX009 (ip), vehicle: Klucel (hydroxypropylcellulose) (HPC)) 95 % of control; (dose: 400.0 mg/kg/injection, schedule: Q01DX009 (ip), vehicle: Klucel (hydroxypropylcellulose) (HPC)) 91 % of control.
